Measurements: patent publication US20210268070A1, “Use of Immunomodulators to Control Infection and Stimulate Healing in Normal and Diabetic Wounds” (priority 2018, published 2021)

How the values were obtained:
S. aureus = S. aureus surgical site infection, implant model; type: in vivo; settings: S. aureus 10^6 CFU, titers after 1 day, compared to PBS, FIGS. 5A and 5B
From the text: FIGS. 5A and 5B illustrate that PAMPs are effective in controlling S. aureus surgical site infection as prophylactic antibiotic standard therapy. S. aureus (10^6 CFU). S. aureus titers after 1 day. Significance determined as compared to PBS *<0.05, **p<0.01, ***p<0.001, ****p<0.0001.
We next examined the impact of CCL3 topical treatment on leukocyte migration by H&E staining, and on leukocyte activation by myeloperoxidase (MPO) measurements by ELISA. (MPO is primarily used as a marker for neutrophil activation but it can also be expressed to lesser extent in macrophages).
(§1) Implant surgery and wound surgery and surgical site infection are performed according to the following method. On the day of surgery, all mice are anesthetized by an intraperitoneal injection of a ketamine/xylazine mixture (90 mg/kg ketamine+5 mg/kg xylazine for mice). The back of the animals is shaved using an electric shave and scrubbed with alcohol swabs 3 times, a topical antiseptic solution (Hibiclens; chlorhexidine gluconate) is applied to the skin. The surgical procedures are performed with sterile instruments, sterile surgical gloves, and aseptic techniques as follows. For wound surgical procedure, a sterile biopsy punch (5-7 mm diameter) is used to punch through the full thickness of the back skin below the shoulder blades. Four 5-7 mm skin wounds are made on the back of each mouse. […]

USA300 MRSA = assay: Implant model of infection with USA300 MRSA; type: in vivo; settings: C57B mice, 10^6 CFU USA300, implant model, topical LPS or fMLP vs vancomycin 40 mg/kg i.p., 24 h, FIG. 2C
Protocol: The implant model of infection in C57B mice was used for 10^6 PA103 (FIG. 2A) or 10^6 USA300 MRSA (FIG. 2C). The wound model of infection was used for 10^6 PA103 in C57BL mice (FIG. 2B) or diabetic db/db mice (FIG. 2D). Infection was carried out at the time of surgery by adding bacteria directly to the surgical sites. Immunomodulators, namely, LPS (10 ng or 100 ng), fMLP (10 ng or 100 ng), CCL3 (1 μg) were added topically at the surgical sites at the time of surgery & infection. GM-CSF (10 μg/kg), tobramycin (Tob at 3.5 mg/kg), and vancomycin (40 mg/kg) were added systemically by i.p. injection 1 h before surgical implantation and infection. Infection levels were determined 24 h following infection (N>4 animals/group; NS=not significant, * p<0.01, ** p<0.001, ***p<0.0001 One-way ANOVA).
(15A) C57BL/6 mice received 40 mg/kg prophylaxis (Sys) vancomycin (Vanc) or 3.5 mg/kg tobramycin (Tobra) by i.p. injection. (15A) 1 h after antibiotic administration, 106 CFU of USA300 was added to implant after insertion into facia (Implant Model). (15B) 1 h after antibiotic administration, 10^6CFU of USA300 or 106CFU PA103 (Pa) were added full-thickness wounds in of C57BL/6 (Wound Model). Infection levels at implant surgical site (Tissue & Implant) or a distant site (Spleen), or wound tissues were assessed 24 h following infection. (N>4 animals/group, * p<0.01, ***p<0.0001, One-way ANOVA).
We assessed these immunomodulators for their ability to control wound and/or implant SS's in normal (C57BL/6) or diabetic (db/db) mice. We acknowledge that diabetic individuals are not as immunocompromised as other immunocompromised patient groups. […] All immunomodulators were added locally at the surgical sites at the time of infection, except GM-CSF (10 μg/kg) which was administered systemically by i.p. injection 1 h prior to surgery per its FDA-approved route of delivery. […] CCL3 and GM-CSF are also tested using the implant model of infection. Here, we tested CCL3 and GM-CSF in the wound model of infection in C57B mice.
as §1, with “blades.” for “blades. Four 5-7 mm skin wounds are made on the back of each mouse.”

diabetic wounds = assay: Collagen deposition and wound healing in infected diabetic wounds; type: in vivo, db/db mice; settings: P. aeruginosa PA103 10^3 infected, compared to PBS
From the text: FIGS. 11A-11C illustrate that CCL3 increases infection control (11A), collagen deposition (11B) and enhances wound healing (11C) in diabetic wounds. P. aeruginosa PA103 10^3N=4; Significance determined as compared to PBS *<0.05, **p<0.01, ***p<0.001.
As discussed above immunomodulatory therapies enhance infection control in both normal and diabetic models. FIGS. 11A-11C illustrate that CCL3 increases infection control (11A) increases collagen deposition (11B) and enhances wound healing (11C) in diabetic wounds. Immunomodulators may also be used to enhance wound healing in uninfected diabetic wounds.
as §1

Molecule	infection control in the implant model against S. aureus (S. aureus)	controlling USA300 MRSA infection, compared with prophylaxis vancomycin (USA300 MRSA)	collagen deposition in diabetic wounds (diabetic wounds; FIG. 11B)	wound healing in diabetic wounds (diabetic wounds; FIG. 11C)
lipopolysaccharide [LPS]	improved	as effective (if not more)	–	–
CSCC[C@H](NC=O)C(=O)N[C@@H](CC(C)C)C(=O)N[C@@H](Cc1ccccc1)C(=O)O [fMLP, N-Formylmethionyl-leucyl-phenylalanine]	improved	as effective (if not more)	–	–
Chemokine (C-C motif) ligand 3 (protein, listed as Homo sapiens, class 1 immunomodulator) MQVSTAALAVLLCTMALCNQFSASLAADTPTACCFSYTSRQIPQNFIADYFETSSQCSKPGVIFLTKRSRQVCADPSEEWVQKYVSDLELSA	–	–	increases	enhances
